Here are results for seven molecules from patent US20220359084A1, “Methods of Treatments Based Upon Molecular Characterization of Breast Cancer” (The Board of Trustees of the Leland Stanford Junior …, priority 2019, published 2022).

pIC50: −log10 of the molar value.

The subject of series [1] is patients with metastatic ER-positive breast cancer. As to the kind of experiment: Progression free survival by molecular subgroup in a prospective cohort of 812 patients. In kind it is in vivo, human. The conditions noted are these: for progression free survival after endocrine therapy, high-risk vs lower risk integrative cluster groups: endocrine therapy (fulvestrant or tamoxifen), pooled, groups averaged together, FIG. 47, adj. P=0.0075. The source says:
The ability of chemotherapy, targeted therapies, and endocrine therapies on patients within particular molecular subgroups was examined in a prospective cohort of 812 patients with metastatic ER-positive breast cancer. Provided in FIG. […]

The subject of series [2] is PDOs derived from the 19006 patient. As to the kind of experiment: Patient derived organoid (PDO) viability, AlamarBlue, patient 19006. In kind it is cell-based. Conditions: Homo sapiens, 192 h, ER-positive PDOs categorized into IntClust4, 19006 patient (FIGS. 52A and 52B), 8 days treatment, 'on the order of', units given within the value. The procedure:
FIGS. 52A and 52B provide viability curves of patient derived organoids derived from patient 19006, generated in accordance with various embodiments of the invention.
(§1) To assess breast cancer PDOs, the organoids were digested into single cells with TrypLE (Gibco). Cells are strained with a 100 μm filter then seeded as 10,000 cells per well with 10 μl […] (BME) (Cultrex) in a black, clear bottom 96-well plate and covered with 100 μl breast organoid media. Cells are grown for 4 days to form small spheroids. Cells were treated with 6 concentrations of different targeted Therapies (including but not limited to capivasertib, ipatasertib, PF4706871, M2698, alpelisib), as well as negative control (DMSO) and positive control (Triton X-100) in duplicate for 8 days, with drug media refreshed on day 5. On day 8, the plates are manually checked under the microscope to ensure the positive control drug(s) had effectively killed organoids, and that organoids present in the negative control wells were healthy. Cell viability is assessed using AlamarBlue (Thermofisher) by adding the dye to the media in final concentration of 1:10, followed by incubation for 4 hours at 37° C., and […] measurement using a microplate reader (Molecular Devices). IC50 values are computed using R package drc. Averages of IC50s from two to three independent experiments were calculated and visualized using R.
Likewise, capivasertib, ipatasertib, and M22698, but not alpelisib and PF4706871, each provide IC50 on the order of 100 nM to 10 μM for PDOs derived from the 19006 patient (FIGS. 53A and 53B).

Series [3] concerns patient derived organoids derived from patient 19004. As to the kind of experiment: Patient derived organoid (PDO) viability, AlamarBlue, FIGS. 53A and 53B. In kind it is cell-based. The conditions noted are these: Homo sapiens, 192 h, ER-positive PDOs categorized into IntClust4, text says 19006 patient (FIGS. 53A and 53B), 8 days treatment, 'on the order of', units given within the value. The procedure: FIGS. 53A and 53B provide viability curves of patient derived organoids derived from patient 19004, generated in accordance with various embodiments of the invention.
as §1, with “IC50 values are computed using R package drc.” left out, “R. […]” for “R.”

For series [4] the following is noted: general statement, no test described; cited from earlier work.

As for `CC/C(=C(\c1ccccc1)c1ccc(OCCN(C)C)cc1)c1ccccc1` [tamoxifen], in series [1], the “progression free survival after endocrine therapy, high-risk vs lower risk integrative cluster groups” value was “lower risk groups have higher probability of progression free survival than high-risk groups”. In the case of `CC(C)NC[C@@H](C(=O)N1CCN(c2ncnc3c2[C@H](C)C[C@H]3O)CC1)c1ccc(Cl)cc1` [ipatasertib], the pIC50 in series [2] and in series [3] was 5.00 to 7.00 each time. Consider `CO[C@H]1C[C@@H]2CC[C@@H](C)[C@@](O)(O2)C(=O)C(=O)N2CCCC[C@H]2C(=O)O[C@H]([C@H](C)C[C@@H]2CC[C@@H](OCCO)[C@H](OC)C2)CC(=O)[C@H](C)/C=C(\C)[C@@H](O)[C@@H](OC)C(=O)[C@H](C)C[C@H](C)/C=C/C=C/C=C/1C` [everolimus], for which the “progression free survival probability, with vs without mTOR antagonist treatment” value in series [1] (IntClust1 patients, FIG. 45, adj. P value=0.023) was “profoundly greater survival probability”. For the molecule `C[C@]12CC[C@@H]3c4ccc(O)cc4C[C@@H](CCCCCCCCC[S+]([O-])CCCC(F)(F)C(F)(F)F)[C@H]3[C@@H]1CC[C@@H]2O` (stereo partly drawn) [fulvestrant], the oral availability result in series [4] is reported as “low”. Moreover, the “progression free survival probability, aromatase inhibitor vs fulvestrant treatment” value in series [1] (IntClust1, IntClust2 and IntClust6 patients (averaged together), FIG. 48, adj. P value=0.004) is recorded as “patients receiving an aromatase inhibitor had greater survival probability than patients receiving fulvestrant”. For the same molecule, the “progression free survival probability, fulvestrant vs aromatase inhibitor treatment” value in series [1] (IntClust9 patients, FIG. 49, adj. P value=0.361) is on record as “slightly, yet insignificantly, greater survival probability”. In addition, the “progression free survival after endocrine therapy, high-risk vs lower risk integrative cluster groups” value in series [1] is “lower risk groups have higher probability of progression free survival than high-risk groups”. For the molecule `NC(=O)c1cccc2c(N[C@H](CN3CCC3)c3ccc(Cl)c(C(F)(F)F)c3)ncnc12` [M22698], the negative-log IC50 (pIC50) in series [2] and in series [3] was 5.00 to 7.00 each time. For `Cc1nc(NC(=O)N2CCC[C@H]2C(N)=O)sc1-c1ccnc(C(C)(C)C(F)(F)F)c1` [alpelisib], the pIC50 in series [2] was 5.00 to 7.00. For `CN(C)C(=O)c1cc2cnc(Nc3ccc(N4CCNCC4)cn3)nc2n1C1CCCC1` [ribociclib], the “progression free survival probability, with vs without CDK4/6 antagonist treatment” value in series [1] (IntClust2 patients, pooled CDK4/6 inhibitor group, FIG. 46, adj. P value=0.016) is “profoundly greater survival probability”.
